Measurements taken from patent US20140171436A1, “TREATMENT OF ANTIFOLATE NEUROTOXICITY” (Syntrix Biosystems, Inc., priority 2003, published 2014).
Where “and” joins values, the source holds several entries; their conditions need not be identical. Identical values can stand only once.

Legend:
sigma-2 = sigma-2 (Homo sapiens, UniProt Q5BJF2); conditions: read-out: Ki sigma-2; cited from earlier work
sigma-1 receptor = sigma-1 receptor (Homo sapiens, UniProt Q99720); conditions: cited from earlier work; for Ki: read-out: sigma-1 affinity Ki
sigma-1 receptor, sequence (Q99720 whole entry, species assumed): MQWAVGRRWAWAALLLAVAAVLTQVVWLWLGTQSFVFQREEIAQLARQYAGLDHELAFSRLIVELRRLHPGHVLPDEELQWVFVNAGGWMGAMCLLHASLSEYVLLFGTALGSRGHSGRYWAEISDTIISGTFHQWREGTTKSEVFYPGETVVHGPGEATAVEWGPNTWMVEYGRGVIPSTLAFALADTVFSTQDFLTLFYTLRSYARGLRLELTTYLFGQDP

[1] = frequent and massive doses as large as 3300 mg/day; cited from earlier work
[2] = test system: patients with AF-NT (MTX neurotoxicity); assay: Patients with AF-NT treated with oral dextromethorphan; assay type: in vivo, human
Source text: For example, the intensity, duration and frequency of neurological symptoms such as seizure, paralysis, nystagmus, ataxia, dysarthria, aphasia cranial nerve palsy, asthenia can be readily determined by clinical evaluation. A variety of validated grading methods are available to assess such symptoms. As used herein, useful strategies for grading such objective AF-NT symptoms include time to initial response, time to resolution of all symptoms, and a grade (1-3) of the rate of symptom resolution for the majority of all AF-NT symptoms. In this grading system, a grade 1 is where symptoms resolve gradually or linearly over an extended period exceeding 96 hours, a grade 2 is where the majority of symptoms resolve in 25 to 96 hours), and a grade 3 is where the majority of symptoms resolve in 24 hours or less: the greater the grade, the greater degree of symptom improvement. Physical deficits that can be objectively assessed generally appear in patients with moderate- to high-dose exposure to antifolate.
The mean grade of symptom resolution for untreated patients was 1.4±0.2 (mean±SEM), while the mean grade of symptom resolution for treated patients was 2.3±0.2 (mean±SEM).

NMDA receptor = conditions: read-out: Ki NMDAR; cited from earlier work
[3] = in vivo; cited from earlier work
[4] = Example 1: NHL, 32 M, MTX 12 mg IT, oral DM 1 mg/kg once
[5] = Example 2: ALL, 15 M, MTX 12 mg IT and 100 mg/m^2 IV, oral DM 2 mg/kg × 1
[6] = Example 3: ALL, 19 M, MTX 7.5 mg IO and 1 g/m^2 IV, oral DM 1 mg/kg TID
[7] = Example 4: OS, 13 M, MTX 12 g/m^2 IV, oral DM 1 mg/kg TID
[8] = Example 4, DM 1 mg/kg three times on a single day
[9] = Example 5: OS, 16 M, MTX 12 g/m^2 IV, oral DM 1 mg/kg × 1
[10] = Example 6: ALL, 18 F, MTX 12 mg IT, oral DM 1 mg/kg BID
[11] = Example 7: ALL, 6 F, MTX 12 mg IT, oral DM 1 mg/kg BID × 3
[12] = Example 8: ALL, 9 F, MTX 12 mg IT, oral DM 1 mg/kg BID
[13] = Example 9: ALL, 14 M, IV and IT MTX, oral DM 1 mg/kg TID
[14] = Example 10: ALL, 8 F, MTX 12 mg IT, oral DM 1 mg/kg BID
[15] = Example 11: ALL, 15 F, MTX 12 mg IT, oral DM 1 mg/kg BID
[16] = Example 12: ALL, 5 M, IV and IT MTX, oral DM 1 mg/kg TID
[17] = Example 13: ALL, 13 M, MTX 12 mg IT, oral DM 1 mg/kg BID
[18] = Example 14: ALL, 14 F, MTX 12 mg IT, oral DM 1 mg/kg BID
[19] = Example 15: ALL, 13 F, MTX 12 mg IT, oral DM 1.5 mg/kg BID × 6
[20] = Example 16: ALL, 6 M, MTX 12 mg IT, oral DM 1 mg/kg BID × 5

sigma-2, sequence (Q5BJF2 whole entry): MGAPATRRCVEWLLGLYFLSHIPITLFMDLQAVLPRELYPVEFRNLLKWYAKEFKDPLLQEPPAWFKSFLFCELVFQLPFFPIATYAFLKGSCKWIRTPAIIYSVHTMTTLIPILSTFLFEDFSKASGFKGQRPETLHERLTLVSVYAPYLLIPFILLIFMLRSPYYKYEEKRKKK

SMILES: COc1ccc2c(c1)[C@@]13CCCC[C@H]1[C@@H](C2)N(C)CC3 [dextromethorphan, (+)-3-methoxy-N-methylmorphinan]
- Ki (sigma-2): 4000 to 11000 nM
- Kd (sigma-1 receptor; read-out: sigma-1 affinity Kd): 20 nM
- Ki (sigma-1 receptor): 205 nM and 210 nM
- side-effects [1]: unacceptable PCP-like side-effects
- Grade (1-3) of symptom resolution [2, 4]: 3 (3 = rapid (majority of symptoms resolved in 24 hours or less))
- Time to initial response [2, 4]: 3 h
- Time to resolution of all symptoms [2, 4]: 24 h
- Grade (1-3) of symptom resolution [2, 5]: 3 (3 = rapid (majority of symptoms resolved in 24 hours or less))
- Time to initial response [2, 5]: 0.50 h
- Time to resolution of all symptoms [2, 5]: 6 h
- duration of symptoms ([2]; Example 3, text, DM 1 mg/kg three times on a single day): 10 days
- Grade (1-3) of symptom resolution [2, 6]: 1 (1 = gradual (symptoms resolved gradually or linearly over an extended period exceeding 96 hours))
- Time to initial response [2, 6]: 3 h
- Time to resolution of all symptoms [2, 6]: 240 h
- Grade (1-3) of symptom resolution [2, 7]: 2 (2 = moderate (majority of symptoms resolved in 25 to 96 hours))
- Time to initial response [2, 7]: 0.75 h
- Time to resolution of all symptoms [2, 7]: 72 h
- duration of symptoms [2, 8]: 3 days
- time until symptoms began to improve [2, 8]: 45 min
- duration of symptoms ([2]; Example 5, text, DM 1 mg/kg once): 0.0208 days
- Grade (1-3) of symptom resolution [2, 9]: 3 (3 = rapid (majority of symptoms resolved in 24 hours or less))
- Time to initial response [2, 9]: 0.50 h
- Time to resolution of all symptoms [2, 9]: 0.50 h
- persistent confusion ([2]; Example 6, text, DM 1 mg/kg po BID): 8 days
- Grade (1-3) of symptom resolution [2, 10]: 2 (2 = moderate (majority of symptoms resolved in 25 to 96 hours))
- Time to initial response [2, 10]: 24 h
- Time to resolution of all symptoms [2, 10]: 192 h
- Grade (1-3) of symptom resolution [2, 11]: 3 (3 = rapid (majority of symptoms resolved in 24 hours or less))
- Time to initial response [2, 11]: 4 h
- Grade (1-3) of symptom resolution [2, 12]: 2 (2 = moderate (majority of symptoms resolved in 25 to 96 hours))
- Time to initial response [2, 12]: 2 h
- Grade (1-3) of symptom resolution [2, 13]: 3 (3 = rapid (majority of symptoms resolved in 24 hours or less))
- Time to initial response [2, 13]: 2 h
- Time to resolution of all symptoms [2, 13]: 3 h
- time to complete resolution ([2]; Example 10, text, DM 1 mg/kg po BID for 24 hours): 5 days
- Grade (1-3) of symptom resolution [2, 14]: 2 (2 = moderate (majority of symptoms resolved in 25 to 96 hours))
- Time to resolution of all symptoms [2, 14]: 120 h
- time until back to baseline ([2]; Example 11, text, DM 1 mg/kg po BID): 8 days
- Grade (1-3) of symptom resolution [2, 15]: 3 (3 = rapid (majority of symptoms resolved in 24 hours or less))
- Time to initial response [2, 15]: 24 h
- Time to resolution of all symptoms [2, 15]: 192 h
- Grade (1-3) of symptom resolution [2, 16]: 3 (3 = rapid (majority of symptoms resolved in 24 hours or less))
- Time to initial response [2, 16]: 24 h
- Time to resolution of all symptoms [2, 16]: 24 h
- Grade (1-3) of symptom resolution [2, 17]: 3 (3 = rapid (majority of symptoms resolved in 24 hours or less))
- Time to initial response [2, 17]: 24 h
- Time to resolution of all symptoms [2, 17]: 24 h
- time until able to speak ([2]; Example 14, text, DM 1 mg po BID by nasogastric tube): 9 days
- Grade (1-3) of symptom resolution [2, 18]: 1 (1 = gradual (symptoms resolved gradually or linearly over an extended period exceeding 96 hours))
- Time to initial response [2, 18]: 216 h
- Time to resolution of all symptoms [2, 18]: >1000 h
- Grade (1-3) of symptom resolution [2, 19]: 1 (1 = gradual (symptoms resolved gradually or linearly over an extended period exceeding 96 hours))
- Time to resolution of all symptoms [2, 19]: >1000 h
- time to complete resolution ([2]; Example 16, text, DM 1 mg/kg po BID for 5 days): about 5 days
- Grade (1-3) of symptom resolution [2, 20]: 1 (1 = gradual (symptoms resolved gradually or linearly over an extended period exceeding 96 hours)) and 2 (2 = moderate (majority of symptoms resolved in 25 to 96 hours))
- Time to initial response [2, 20]: 24 to 48 h and 24 h
- Time to resolution of all symptoms [2, 20]: 120 h
- mean grade of symptom resolution (mean±SEM) ([2]; treated patients, Examples 1-16, P 0.0042 vs untreated, unpaired t test): 2.3±0.2

SMILES: CC12CC3CC(C)(C1)CC(N)(C3)C2 [memantine]
- Ki (NMDA receptor): 500 nM
- Ki (sigma-1 receptor): 2600 nM
- mean CSF/serum ratio [3]: 0.52
